Laboratory results reported in paper PMC9389588, “1,6-epi-Cyclophellitol Cyclosulfamidate Is a Bona Fide Lysosomal α-Glucosidase Stabilizer for the Treatment of Pompe Disease” (Journal of the American Chemical Society, 2022).
Where “and” joins values, the source holds several entries; their conditions need not be identical. Identical values can stand only once.

Columns and labels:
[1] = biological target: T1, ER α-glucosidase II (GANAB) (Homo sapiens, UniProt Q14697); experiment: in vitro apparent IC50, GANAB in fibroblast lysates, 4-MU-α-D-glucopyranoside; format: biochemical; conditions: for IC50: apparent IC50, Pompe disease fibroblast lysates, pH 7.0, mean ± SD
T1 construct: GANAB (from Pompe Disease Fibroblast Lysates); endogenous in cells; host or cells: human fibroblasts (lysate)
T1 sequence (Q14697 29-944): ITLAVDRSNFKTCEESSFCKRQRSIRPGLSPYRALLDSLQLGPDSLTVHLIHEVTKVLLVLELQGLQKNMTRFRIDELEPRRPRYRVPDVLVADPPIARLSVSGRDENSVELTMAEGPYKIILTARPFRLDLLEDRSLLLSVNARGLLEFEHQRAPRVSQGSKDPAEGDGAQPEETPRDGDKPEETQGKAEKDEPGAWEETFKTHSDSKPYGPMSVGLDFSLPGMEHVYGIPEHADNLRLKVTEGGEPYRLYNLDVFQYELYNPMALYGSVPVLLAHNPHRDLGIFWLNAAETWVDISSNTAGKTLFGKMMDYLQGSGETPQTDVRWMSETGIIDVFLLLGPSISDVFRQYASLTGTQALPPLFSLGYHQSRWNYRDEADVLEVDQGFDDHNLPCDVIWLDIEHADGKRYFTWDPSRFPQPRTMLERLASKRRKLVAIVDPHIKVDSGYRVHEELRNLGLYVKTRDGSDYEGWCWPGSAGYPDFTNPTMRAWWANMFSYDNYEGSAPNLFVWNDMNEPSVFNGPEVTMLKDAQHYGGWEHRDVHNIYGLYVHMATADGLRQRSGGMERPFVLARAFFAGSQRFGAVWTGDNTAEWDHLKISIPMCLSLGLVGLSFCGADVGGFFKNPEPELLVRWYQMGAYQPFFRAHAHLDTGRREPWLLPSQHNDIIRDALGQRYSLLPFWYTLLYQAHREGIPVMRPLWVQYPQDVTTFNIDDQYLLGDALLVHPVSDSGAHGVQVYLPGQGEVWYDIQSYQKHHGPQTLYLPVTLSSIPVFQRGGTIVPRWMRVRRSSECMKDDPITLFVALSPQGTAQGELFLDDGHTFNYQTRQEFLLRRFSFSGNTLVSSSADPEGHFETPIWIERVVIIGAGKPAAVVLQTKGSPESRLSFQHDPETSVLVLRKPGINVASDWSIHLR
T1 sequence (P14314 15-528 partner): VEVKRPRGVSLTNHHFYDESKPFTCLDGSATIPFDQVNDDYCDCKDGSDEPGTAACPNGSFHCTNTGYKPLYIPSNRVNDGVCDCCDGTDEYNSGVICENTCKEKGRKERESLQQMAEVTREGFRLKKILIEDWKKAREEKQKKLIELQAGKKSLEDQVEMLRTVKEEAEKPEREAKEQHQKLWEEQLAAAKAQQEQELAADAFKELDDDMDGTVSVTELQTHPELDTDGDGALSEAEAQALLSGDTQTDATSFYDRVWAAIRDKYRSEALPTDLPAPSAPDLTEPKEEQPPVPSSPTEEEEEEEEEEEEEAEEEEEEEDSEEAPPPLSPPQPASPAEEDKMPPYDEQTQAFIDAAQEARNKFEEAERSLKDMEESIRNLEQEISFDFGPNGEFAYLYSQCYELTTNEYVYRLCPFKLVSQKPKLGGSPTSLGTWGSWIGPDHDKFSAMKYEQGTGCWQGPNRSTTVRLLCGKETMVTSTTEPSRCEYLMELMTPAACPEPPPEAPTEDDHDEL

[2] = biological target: α-glucosidase GAA (Myozyme) (Homo sapiens, UniProt P10253); experiment: in vitro apparent IC50, GAA (Myozyme), 4-MU-α-D-glucopyranoside; format: biochemical; design: purchased Sanofi Genzyme; conditions: Myozyme 47 nM, pH 4.0, 30 min preincubation, mean ± SD
[3] = biological target: T2, β-glucosidase GBA1 (Cerezyme) (Homo sapiens, UniProt P04062, R534H); experiment: in vitro apparent IC50, GBA1 (Cerezyme), 4-MU-β-D-glucopyranoside; format: biochemical; conditions: pH 5.2, mean ± SD, read-out: in vitro GBA IC50
T2 construct: purchased
T2 sequence (P04062 40-536 R534H): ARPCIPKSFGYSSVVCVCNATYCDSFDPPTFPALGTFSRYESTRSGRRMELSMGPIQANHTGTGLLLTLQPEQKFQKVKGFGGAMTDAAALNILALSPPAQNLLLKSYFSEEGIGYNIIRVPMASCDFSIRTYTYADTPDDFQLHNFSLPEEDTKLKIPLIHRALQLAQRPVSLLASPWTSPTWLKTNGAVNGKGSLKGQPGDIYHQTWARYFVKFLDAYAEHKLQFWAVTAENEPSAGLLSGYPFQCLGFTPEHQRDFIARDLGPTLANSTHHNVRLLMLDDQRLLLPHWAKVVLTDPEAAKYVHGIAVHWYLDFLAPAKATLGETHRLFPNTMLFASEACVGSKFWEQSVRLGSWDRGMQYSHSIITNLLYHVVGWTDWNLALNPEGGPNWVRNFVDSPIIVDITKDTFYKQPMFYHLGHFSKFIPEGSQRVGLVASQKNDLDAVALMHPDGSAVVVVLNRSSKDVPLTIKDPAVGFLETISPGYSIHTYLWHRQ

[4] = biological target: T3, β-glucosidase GBA2 (Homo sapiens, UniProt Q9HCG7); experiment: in vitro apparent IC50, GBA2-overexpressing HEK293T lysate; format: biochemical; conditions: for IC50: apparent IC50, pH 5.8, mean ± SD
T3 construct: expressed in transfected cells; host or cells: HEK293T
T3 sequence (Q9HCG7 1-927): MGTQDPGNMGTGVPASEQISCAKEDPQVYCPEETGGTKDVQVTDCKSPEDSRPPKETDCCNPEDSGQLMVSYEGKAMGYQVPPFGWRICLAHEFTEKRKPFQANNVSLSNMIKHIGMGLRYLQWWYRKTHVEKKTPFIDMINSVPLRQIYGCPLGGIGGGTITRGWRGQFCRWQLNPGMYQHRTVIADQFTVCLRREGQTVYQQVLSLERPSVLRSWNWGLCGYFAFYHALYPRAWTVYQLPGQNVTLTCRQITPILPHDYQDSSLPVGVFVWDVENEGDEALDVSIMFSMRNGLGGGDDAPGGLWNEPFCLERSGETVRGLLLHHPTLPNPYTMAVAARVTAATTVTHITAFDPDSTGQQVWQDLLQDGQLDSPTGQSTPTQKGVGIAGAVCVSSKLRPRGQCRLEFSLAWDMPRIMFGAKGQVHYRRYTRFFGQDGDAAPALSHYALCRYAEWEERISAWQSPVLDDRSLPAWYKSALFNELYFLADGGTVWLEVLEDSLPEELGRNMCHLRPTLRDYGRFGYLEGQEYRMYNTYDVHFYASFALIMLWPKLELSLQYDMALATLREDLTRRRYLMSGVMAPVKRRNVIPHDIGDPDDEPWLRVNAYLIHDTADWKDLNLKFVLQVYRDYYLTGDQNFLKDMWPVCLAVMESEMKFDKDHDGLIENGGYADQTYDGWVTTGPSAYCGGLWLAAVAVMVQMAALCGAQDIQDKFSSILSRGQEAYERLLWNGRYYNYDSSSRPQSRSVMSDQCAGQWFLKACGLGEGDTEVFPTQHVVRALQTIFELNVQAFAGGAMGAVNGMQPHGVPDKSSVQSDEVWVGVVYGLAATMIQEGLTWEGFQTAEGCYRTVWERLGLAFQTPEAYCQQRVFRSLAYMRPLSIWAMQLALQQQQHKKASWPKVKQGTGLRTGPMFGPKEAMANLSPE

[5] = biological target: T4, glucosylceramide synthase (GCS) (Mus musculus, UniProt O88693); experiment: in situ cell inhibition of GCS in RAW 264.7 cells, glucosylation of C6-NBD-ceramide; format: cell-based; conditions: mean ± SD
T4 construct: endogenous in cells; host or cells: RAW 264.7
T4 sequence (O88693 1-394): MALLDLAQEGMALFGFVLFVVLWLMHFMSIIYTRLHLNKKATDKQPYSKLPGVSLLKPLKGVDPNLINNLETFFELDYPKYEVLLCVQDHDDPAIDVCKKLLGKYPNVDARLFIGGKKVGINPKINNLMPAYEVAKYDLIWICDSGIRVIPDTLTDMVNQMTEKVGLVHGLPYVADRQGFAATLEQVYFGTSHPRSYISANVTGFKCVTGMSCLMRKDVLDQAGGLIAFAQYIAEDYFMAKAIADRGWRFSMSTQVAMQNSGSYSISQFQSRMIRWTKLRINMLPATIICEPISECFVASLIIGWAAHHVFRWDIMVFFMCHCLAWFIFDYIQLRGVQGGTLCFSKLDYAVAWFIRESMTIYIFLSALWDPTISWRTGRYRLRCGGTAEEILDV

Compound | activity toward GANAB, in words [1] | IC50 [1] | IC50 [2] | IC50 [3] | IC50 [4] | IC50 [5] | inhibition at 500 µM ([4]; at 500 μM)
CN1[C@@H]2[C@H](O)[C@@H](O)[C@H](O)[C@@H](CO)[C@@H]2OS1(=O)=O [compound 5] | inactive | > 500 µM | 485 ± 146 µM | > 500 µM | 393 ± 93.7 µM | – | –
CN1[C@H]2[C@H](CO)[C@@H](O)[C@H](O)[C@@H](O)[C@H]2OS1(=O)=O [compound 7] | – | 132 ± 11.8 µM | > 1000 µM | 93 µM and 93.4 µM | 652 ± 87.3 µM | > 50 µM | –
O=S1(=O)N[C@@H]2[C@H](O)[C@@H](O)[C@H](O)[C@@H](CO)[C@@H]2N1 [compound 8] | – | > 500 µM | > 500 µM | > 500 µM | > 500 µM | > 50 µM | –
O=S1(=O)O[C@@H]2[C@H](O)[C@@H](O)[C@H](O)[C@@H](CO)[C@@H]2O1 [compound 3, 1,6-epi-cyclophellitol cyclosulfate, reference compound] | – | 0.026 µM | 0.048 µM | > 500 µM | – | – | 62%
